Measured values published in patent US8937064B2, “Pyrazolo[1,5-a]pyrimidines useful as JAK2 inhibitors” (Vertex Pharmaceuticals Incorporated, priority 2007, dated 2015).

How the values were obtained:
JAK3 = molecular target: T1, JAK3 (Homo sapiens, UniProt P52333); assay: JAK3 Inhibition Assay; assay type: biochemical; settings: 1 nM JAK3, 1 μM poly(Glu)4Tyr, 5 μM ATP, 25° C., 33P incorporation
T1 sequence (P52333 1-1124): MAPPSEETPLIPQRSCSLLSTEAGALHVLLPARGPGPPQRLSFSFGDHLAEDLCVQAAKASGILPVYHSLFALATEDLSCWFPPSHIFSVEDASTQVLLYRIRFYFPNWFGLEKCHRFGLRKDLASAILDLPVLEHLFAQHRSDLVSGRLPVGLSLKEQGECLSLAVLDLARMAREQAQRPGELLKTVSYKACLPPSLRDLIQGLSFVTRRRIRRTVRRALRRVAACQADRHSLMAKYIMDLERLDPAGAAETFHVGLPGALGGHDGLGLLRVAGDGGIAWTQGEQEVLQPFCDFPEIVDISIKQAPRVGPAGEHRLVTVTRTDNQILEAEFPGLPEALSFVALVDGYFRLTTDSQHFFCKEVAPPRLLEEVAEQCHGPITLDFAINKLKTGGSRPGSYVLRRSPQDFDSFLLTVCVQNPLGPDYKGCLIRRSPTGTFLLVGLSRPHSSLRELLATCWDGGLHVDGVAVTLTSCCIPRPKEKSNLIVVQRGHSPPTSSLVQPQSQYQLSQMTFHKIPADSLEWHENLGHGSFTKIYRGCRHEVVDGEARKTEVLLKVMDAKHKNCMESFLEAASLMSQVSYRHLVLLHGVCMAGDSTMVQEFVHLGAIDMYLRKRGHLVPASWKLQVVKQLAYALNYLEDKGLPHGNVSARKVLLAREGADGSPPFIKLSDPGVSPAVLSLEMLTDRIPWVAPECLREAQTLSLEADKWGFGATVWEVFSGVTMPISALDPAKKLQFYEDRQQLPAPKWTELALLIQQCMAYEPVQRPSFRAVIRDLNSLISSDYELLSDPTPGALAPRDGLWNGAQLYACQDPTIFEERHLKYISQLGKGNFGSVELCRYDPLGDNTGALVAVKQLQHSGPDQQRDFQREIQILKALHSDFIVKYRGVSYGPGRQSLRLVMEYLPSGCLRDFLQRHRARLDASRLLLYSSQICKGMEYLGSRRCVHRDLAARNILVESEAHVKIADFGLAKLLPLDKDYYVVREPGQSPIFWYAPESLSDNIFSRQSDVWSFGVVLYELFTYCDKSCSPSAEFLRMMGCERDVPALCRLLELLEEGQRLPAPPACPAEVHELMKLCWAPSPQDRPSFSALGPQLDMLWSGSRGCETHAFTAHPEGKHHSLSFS

JAK-2 enzyme = JAK-2 enzyme (Homo sapiens, UniProt O60674); assay: JAK2 Inhibition Assay
Sequence of JAK-2 enzyme (O60674 whole entry): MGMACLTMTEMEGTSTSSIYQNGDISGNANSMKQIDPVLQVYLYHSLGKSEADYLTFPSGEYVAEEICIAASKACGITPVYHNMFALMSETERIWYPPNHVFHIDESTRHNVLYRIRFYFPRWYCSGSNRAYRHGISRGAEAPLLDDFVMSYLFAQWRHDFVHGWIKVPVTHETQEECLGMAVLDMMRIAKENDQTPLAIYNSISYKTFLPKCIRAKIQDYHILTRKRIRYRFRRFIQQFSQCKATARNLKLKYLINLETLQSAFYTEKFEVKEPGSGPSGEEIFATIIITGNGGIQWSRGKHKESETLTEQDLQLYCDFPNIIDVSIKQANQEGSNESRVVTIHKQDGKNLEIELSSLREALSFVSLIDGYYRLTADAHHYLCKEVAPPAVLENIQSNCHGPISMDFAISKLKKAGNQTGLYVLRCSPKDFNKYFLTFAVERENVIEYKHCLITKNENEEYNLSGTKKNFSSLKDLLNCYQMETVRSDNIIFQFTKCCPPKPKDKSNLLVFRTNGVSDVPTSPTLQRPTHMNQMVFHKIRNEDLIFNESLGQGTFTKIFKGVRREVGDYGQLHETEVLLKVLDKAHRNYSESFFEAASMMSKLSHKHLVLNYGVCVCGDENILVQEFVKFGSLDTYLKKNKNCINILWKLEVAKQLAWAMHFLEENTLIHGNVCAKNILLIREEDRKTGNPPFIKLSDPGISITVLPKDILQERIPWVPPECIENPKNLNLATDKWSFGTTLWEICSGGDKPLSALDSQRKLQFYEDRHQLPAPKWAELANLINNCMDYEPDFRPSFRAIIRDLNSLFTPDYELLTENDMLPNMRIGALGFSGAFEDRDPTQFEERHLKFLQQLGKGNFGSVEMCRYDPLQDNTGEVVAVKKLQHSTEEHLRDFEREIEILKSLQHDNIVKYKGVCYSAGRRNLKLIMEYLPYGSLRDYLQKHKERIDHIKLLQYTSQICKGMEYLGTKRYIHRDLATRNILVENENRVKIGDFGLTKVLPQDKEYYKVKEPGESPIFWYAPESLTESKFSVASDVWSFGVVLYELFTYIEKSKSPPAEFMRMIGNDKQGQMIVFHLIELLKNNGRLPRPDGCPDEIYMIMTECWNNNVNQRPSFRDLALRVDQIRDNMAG

Structure (SMILES)	Ki (JAK3)	Ki (JAK-2 enzyme)
C[C@H](Nc1cc(-c2c(N)nn3cccnc23)nc(OCC2CC2)n1)c1ccc(F)cc1 [Compound 166]	10 to 100 nM	< 10 nM
C[C@H](Nc1cc(-c2c(N)nn3cccnc23)nc(OCCN2CCOCC2)n1)c1ccc(F)cc1 [Compound 109]	10 to 100 nM	< 10 nM
C[C@H](Nc1cc(-c2c(N)nn3cccnc23)nc(OC[C@H]2CO2)n1)c1ccc(F)cc1 [Compound 159]	100 to 500 nM	< 10 nM
COc1ccccc1CNc1cc(-c2c(N)nn3cccnc23)ncn1 [Compound 5]	10 to 100 nM	< 10 nM
C[C@H](Nc1cc(-c2c(N)nn3cccnc23)nc(C2CC2)n1)c1ccc(F)cc1 [Compound 91]	10 to 100 nM	< 10 nM
Nc1nn2cccnc2c1-c1cc(O[C@@H](c2ccccc2)C(F)(F)F)ncn1 [Compound 70]	500 to 5000 nM	100 to 500 nM
C[C@H](Nc1cc(-c2c(N)nn3cccnc23)nc(OCCC2CC2)n1)c1ccc(F)cc1 [Compound 157]	100 to 500 nM	10 to 100 nM
N#Cc1cccc(C(=O)Nc2ccnc(-c3cnn4cccnc34)c2)c1 [Compound 230]	500 to 5000 nM	100 to 500 nM
Nc1nn2cccnc2c1-c1cc(NCc2ccccc2OC(F)(F)F)ncn1 [Compound 14]	10 to 100 nM	< 10 nM
C[C@H](c1ccccc1)N(C)c1cc(-c2c(N)nn3cccnc23)ncn1 [Compound 20]	100 to 500 nM	10 to 100 nM
Cc1ccn2nc(N)c(-c3cc(N[C@@H](C)c4ccc(F)cc4)ncn3)c2n1 [Compound 95]	10 to 100 nM	< 10 nM
O=C(Nc1ccnc(-c2cnn3cccnc23)c1)c1ccc(F)c(F)c1 [Compound 231]	500 to 5000 nM	100 to 500 nM
C[C@@H](Nc1cc(-c2cnn3cccnc23)ncn1)c1ccc(Cl)cc1 [Compound 146]	500 to 5000 nM	10 to 100 nM
C[C@H](Nc1cc(-c2c(N)nn3cccnc23)nc(OCC2CCC2)n1)c1ccc(F)cc1 [Compound 148]	100 to 500 nM	10 to 100 nM
CC(C)=CCOc1nc(N[C@@H](C)c2ccc(F)cc2)cc(-c2c(N)nn3cccnc23)n1 [Compound 152]	10 to 100 nM	10 to 100 nM
C[C@H](Nc1cc(-c2c(N)nn3cccnc23)nc(OC[C@@H]2CO2)n1)c1ccc(F)cc1 [Compound 163]	500 to 5000 nM	10 to 100 nM
CN(Cc1cccnc1)c1cc(-c2c(N)nn3cccnc23)ncn1 [Compound 33]	10 to 100 nM	10 to 100 nM
C[C@H](Nc1cc(-c2c(N)nn3cccnc23)nc(N2CC[C@@H](F)C2)n1)c1ccc(F)cc1 [Compound 189]	100 to 500 nM	< 10 nM
CC[C@H](Nc1cc(-c2c(N)nn3ccc(C)nc23)ncn1)c1ccc(F)c(F)c1 [Compound 94]	10 to 100 nM	< 10 nM
C[C@H](Nc1ccnc(-c2cnn3cccnc23)n1)c1ccc(Cl)cc1 [Compound 226]	500 to 5000 nM	100 to 500 nM
C[C@H](Nc1cc(-c2c(N)nn3cccnc23)ncn1)c1ccc(Cl)cc1F [Compound 81]	10 to 100 nM	< 10 nM
C[C@H](Nc1cc(-c2c(N)nn3cccnc23)nc(OCC(F)(F)F)n1)c1ccc(F)cc1 [Compound 156]	100 to 500 nM	< 10 nM
C[C@H](Nc1cc(-c2c(N)nn3cccnc23)nc(OCC2COC(C)(C)O2)n1)c1ccc(F)cc1 (stereo partly shown) [Compound 168]	10 to 100 nM	< 10 nM
CCC[C@H](Nc1cc(-c2c(N)nn3cccnc23)nc(S(C)(=O)=O)n1)c1ccc(F)cc1 [Compound 110]	10 to 100 nM	< 10 nM
C[C@H](Nc1cc(-c2c(N)nn3cccnc23)nc(OCC2CCOC2)n1)c1ccc(F)cc1 (stereo partly shown) [Compound 164]	10 to 100 nM	< 10 nM
O=C(Nc1ccnc(-c2cnn3cccnc23)c1)c1ccccc1F [Compound 228]	500 to 5000 nM	100 to 500 nM
CCC[C@H](Nc1cc(-c2c(N)nn3cccnc23)nc(S(C)(=O)=O)n1)c1ccc(F)cc1F [Compound 112]	10 to 100 nM	< 10 nM
OCC[C@H](Nc1cc(-c2cnn3cccnc23)ncn1)c1ccccc1 [Compound 115]	10 to 100 nM	10 to 100 nM

The next lines start with the values.

Ki (JAK3)	Ki (JAK-2 enzyme)	Structure (SMILES)
10 to 100 nM	< 10 nM	C[C@H](Nc1cc(-c2cnn3cccnc23)ncn1)c1ccc(F)c(F)c1 [Compound 118]
10 to 100 nM	< 10 nM	CSCCOc1nc(N[C@@H](C)c2ccc(F)cc2F)cc(-c2cnn3cccnc23)n1 [Compound 212]
10 to 100 nM	< 10 nM	C[C@H](Nc1cc(-c2cnn3cccnc23)nc(OCC2CCCNC2)n1)c1ccc(F)cc1F (stereo partly shown) [Compound 202]
100 to 500 nM	10 to 100 nM	C[C@H](Nc1cc(-c2c(N)nn3cccnc23)nc(OCCOC(C)(C)C)n1)c1ccc(F)cc1 [Compound 160]
100 to 500 nM	10 to 100 nM	COC(C)(C)CCOc1nc(N[C@@H](C)c2ccc(F)cc2F)cc(-c2cnn3cccnc23)n1 [Compound 194]
500 to 5000 nM	10 to 100 nM	CC(C)CCCOc1nc(N[C@@H](C)c2ccc(F)cc2)cc(-c2c(N)nn3cccnc23)n1 [Compound 167]
10 to 100 nM	< 10 nM	C[C@H](Nc1cc(-c2cnn3cccnc23)nc(OCCN2CCCC2=O)n1)c1ccc(F)cc1F [Compound 209]
10 to 100 nM	< 10 nM	CC(C)OCCOc1nc(N[C@@H](C)c2ccc(F)cc2)cc(-c2c(N)nn3cccnc23)n1 [Compound 149]
10 to 100 nM	< 10 nM	CSCCCOc1nc(N[C@@H](C)c2ccc(F)cc2)cc(-c2c(N)nn3cccnc23)n1 [Compound 172]
10 to 100 nM	< 10 nM	CC(C#N)Oc1nc(N[C@@H](C)c2ccc(F)cc2F)cc(-c2cnn3cccnc23)n1 (stereo partly shown) [Compound 201]
100 to 500 nM	10 to 100 nM	COCCN(C)c1nc(N[C@@H](C)c2ccc(F)cc2F)cc(-c2c(N)nn3cccnc23)n1 [Compound 133]
10 to 100 nM	< 10 nM	C[C@H](Nc1cc(-c2cnn3cccnc23)ncn1)c1ccc(F)cc1F [Compound 117]
< 10 nM	< 10 nM	COc1nc(N[C@@H](C)c2ccc(F)cc2F)cc(-c2c(N)nn3cccnc23)n1 [Compound 132]
10 to 100 nM	< 10 nM	COCCOc1nc(N[C@@H](C)c2ccc(F)cc2)cc(-c2c(N)nn3cccnc23)n1 [Compound 108]
10 to 100 nM	< 10 nM	COCCOc1nc(N[C@@H](C)c2ccc(F)cc2F)cc(-c2cnn3cccnc23)n1 [Compound 196]
100 to 500 nM	10 to 100 nM	C[C@H](Nc1cc(-c2cnn3cccnc23)nc(OCC2CCCC2)n1)c1ccc(F)cc1F [Compound 223]
100 to 500 nM	10 to 100 nM	CCN(CC)C(=O)COc1nc(N[C@@H](C)c2ccc(F)cc2F)cc(-c2c(N)nn3cccnc23)n1 [Compound 127]
100 to 500 nM	< 10 nM	C[C@H](Nc1cc(-c2cnn3cccnc23)nc(OCC2CC2)n1)c1ccc(F)cc1F [Compound 205]
10 to 100 nM	< 10 nM	C[C@H](Nc1cc(-c2cnn3cccnc23)nc(OCCN2CCCCCC2)n1)c1ccc(F)cc1F [Compound 217]
10 to 100 nM	< 10 nM	C[C@H](Nc1cc(-c2c(N)nn3cccnc23)nc(OCC2CCCO2)n1)c1ccc(F)cc1F (stereo partly shown) [Compound 139]
10 to 100 nM	< 10 nM	CC(C)[C@H](Nc1cc(-c2cnn3cccnc23)ncn1)c1ccc(F)cc1F [Compound 121]
10 to 100 nM	< 10 nM	C#CCCCOc1nc(N[C@@H](C)c2ccc(F)cc2)cc(-c2c(N)nn3cccnc23)n1 [Compound 183]
10 to 100 nM	< 10 nM	C[C@H](Nc1cc(-c2c(N)nn3cccnc23)nc(O)n1)c1ccc(F)cc1F [Compound 131]
10 to 100 nM	< 10 nM	C[C@H](Nc1cc(-c2c(N)nn3cccnc23)nc(OCCCN(C)C)n1)c1ccc(F)cc1 [Compound 154]
100 to 500 nM	< 10 nM	COCCC(=O)Nc1nc(N[C@@H](C)c2ccc(F)cc2F)cc(-c2cnn3cccnc23)n1 [Compound 184]
